Values joined by “and” are separate entries in the source; they are usually repeats but may differ in a detail not shown here. Equal values may be shown once. Read-outs that look alike come from different tables or passages of the source. Each block holds one molecule with its values, some of them ahead of it.
Assays:
[1] = tested on: Bovine glutamate dehydrogenase (GDH); details: GDH Km for NADPH; cited from earlier work
[2] = molecular target: T1, Pnc1 (Saccharomyces cerevisiae nicotinamidase) (Saccharomyces cerevisiae, UniProt P53184); test: Substrate specificity: relative rates for nicotinamide analogues; type: biochemical
T1 sequence (P53184 1-216): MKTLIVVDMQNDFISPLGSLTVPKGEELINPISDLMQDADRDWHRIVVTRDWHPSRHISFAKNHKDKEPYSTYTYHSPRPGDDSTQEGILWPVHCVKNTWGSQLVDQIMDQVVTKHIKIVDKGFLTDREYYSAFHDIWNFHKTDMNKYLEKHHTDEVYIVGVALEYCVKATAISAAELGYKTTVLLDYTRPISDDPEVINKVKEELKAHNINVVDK

[3] = molecular target: T2, SpNic (Streptococcus pneumoniae nicotinamidase) (Streptococcus pneumoniae, UniProt A0A0H2UR34); type: biochemical
[4] = molecular target: T3, PfNic (Plasmodium falciparum nicotinamidase) (Plasmodium falciparum, UniProt O97284); type: biochemical
[5] = molecular target: T4, BbNic (Borrelia burgdorferi nicotinamidase) (Borreliella burgdorferi, UniProt O50718); type: biochemical
[6] = molecular target: T3, PfNic (Plasmodium falciparum nicotinamidase); test: biochemical
[7] = molecular target: T4, BbNic (Borrelia burgdorferi nicotinamidase); test: Steady state kinetics of nicotinamide hydrolysis, HPLC assay; type: biochemical; details: substrate nicotinamide, 100 mM phosphate pH 7.3
SPNic C136S mutant = test: Nicotinamidase catalytic rate of SpNic and mutants; type: biochemical, Streptococcus pneumoniae; details: 200 µM NAM, 37 °C, HPLC assay
[8] = molecular target: T1, Pnc1 (Saccharomyces cerevisiae nicotinamidase); test: Steady state progress curve analysis, GDH coupled assay; details: substrate nicotinamide, 100 µM nicotinamide, pH 7.3
SPNic C136A mutant = test: Nicotinamidase catalytic rate of SpNic and mutants; type: biochemical, Streptococcus pneumoniae; details: 200 µM NAM, 37 °C, HPLC assay
[9] = molecular target: T2, SpNic (Streptococcus pneumoniae nicotinamidase); test: Steady state progress curve analysis, GDH coupled assay; type: biochemical; details: substrate nicotinamide, 100 µM nicotinamide, pH 7.3
[10] = molecular target: T1, Pnc1 (Saccharomyces cerevisiae nicotinamidase); test: Inhibition analysis, GDH coupled nicotinamidase assay; type: biochemical; details: Km of nicotinamide over Ki of nicotinaldehyde
[11] = molecular target: S. cerevisiae nicotinamidase; details: reported as non-competitive; cited from earlier work
nicotinamidases = test: Class-wide statements for all nicotinamidases studied; type: biochemical
[12] = no reference given; cited from earlier work
Steady state analysis = substrate: NC(=O)c1cccnc1; test: Steady state analysis; type: biochemical, Caenorhabditis elegans; details: other: substrate nicotinamide, initial rates, pH 7.3
[13] = footnote b: HPLC assay, 500 µM analogue, pH 7.3, 37 °C
[14] = footnote a: GDH coupled fluorescence assay, 500 µM analogue, pH 7.3

Molecule: NC(=O)C1=CN([C@@H]2O[C@H](COP(=O)(O)OP(=O)(O)OC[C@H]3O[C@@H](n4cnc5c(N)ncnc54)[C@H](OP(=O)(O)O)[C@@H]3O)[C@@H](O)[C@H]2O)C=CC1 [NADPH, nicotinamide adenine dinucleotide phosphate reduced form]
Km [1]: 28 µM

Molecule: CCOC(=O)c1cccnc1 [compound 12, ethylnicotinate]
Relative rate (nicotinamide = 1.00) [2, 13]: 0.044
Relative rate (nicotinamide = 1.00) [3, 13]: 0.0086
Relative rate (nicotinamide = 1.00) [4, 13]: 0.023

Molecule: COc1ccncc1C(N)=O [compound 7, 4-Methoxynicotinamide]
Relative rate (nicotinamide = 1.00) [2, 13]: 0.050
Relative rate (nicotinamide = 1.00) [5, 13]: 0.20
Relative rate (nicotinamide = 1.00) [3, 13]: 0.065
Relative rate (nicotinamide = 1.00) [4, 13]: 0.12

Molecule: Cc1ccc(C(N)=O)cn1 [compound 5, 6-methylnicotinamide]
Relative rate (nicotinamide = 1.00) [2, 14]: 0
Relative rate (nicotinamide = 1.00) [5, 14]: 0.45
Relative rate (nicotinamide = 1.00) [3, 14]: 0.11
Relative rate (nicotinamide = 1.00) [4, 14]: 0.40

Molecule: C[n+]1cccc(C(N)=O)c1 [compound 14, 1-Methylnicotinamide]
Relative rate (nicotinamide = 1.00) [2, 13]: 0
Relative rate (nicotinamide = 1.00) [3, 13]: 0
Relative rate (nicotinamide = 1.00) [4, 13]: 0

Molecule: NC(=O)c1ccnc(N)c1 [compound 9, 2-Aminoisonicotinamide]
Relative rate (nicotinamide = 1.00) [2, 13]: 0
Relative rate (nicotinamide = 1.00) [3, 13]: 0
Relative rate (nicotinamide = 1.00) [4, 13]: 0

Molecule: Cc1cncc(C(N)=O)c1 [compound 1, 5-methylnicotinamide]
Relative rate (nicotinamide = 1.00) [2, 14]: 0.80
Relative rate (nicotinamide = 1.00) [5, 14]: 0.51
Relative rate (nicotinamide = 1.00) [3, 14]: 1.63
Relative rate (nicotinamide = 1.00) [4, 14]: 3.30

Ki [6]: 10 µM
Molecule: CC(=O)c1cccnc1 [compound 24, acetylpyridine]

Molecule: NC(=O)c1cccnc1 [nicotinamide]
Km ([7]; Michaelis-Menten fit): 36.7 ± 7.5 µM
kcat ([7]; confirmed by HPLC assay): 0.0030 ± 0.0002 ^b s^−1
Relative rate (nicotinamide = 1.00) ([2]; no method footnote): 1.00
Catalytic rate (kobs) (SPNic C136S mutant): < 10^−6 s^−1
kcat [8]: 3.8 s^−1 and 3.8 ± 0.1 ^b s^−1
Catalytic rate (kobs) (SPNic C136A mutant): < 10^−6 s^−1
Relative rate (nicotinamide = 1.00) ([5]; no method footnote): 1.00
kcat [9]: 2.1 s⁻¹
Relative rate (nicotinamide = 1.00) ([3]; no method footnote): 1.00
Relative rate (nicotinamide = 1.00) ([4]; no method footnote): 1.00

Molecule: O=Cc1cccnc1 [compound 16, nicotinaldehyde]
Ki [6]: 0.034 ± 0.007 µM
Km/Ki [10]: 7.6
Ki [11]: 68 µM
factor by which Ki is smaller than the Km for nicotinamide (nicotinamidases; across all enzymes studied except yeast pnc1): 91–3450
mode of inhibition (double reciprocal plots) (nicotinamidases; versus nicotinamide, in all cases): competitive inhibition

Ki [6]: 0.023 ± 0.005 µM
Molecule: Cc1cncc(C=O)c1 [compound 19, 5-methylnicotinaldehyde]

Molecule: NC(=S)c1cccnc1 [compound 10, Thionicotinamide]
Relative rate (nicotinamide = 1.00) ([2]; no method footnote): 0.44
Relative rate (nicotinamide = 1.00) ([5]; no method footnote): 0
Relative rate (nicotinamide = 1.00) ([3]; no method footnote): 0
Relative rate (nicotinamide = 1.00) ([4]; no method footnote): 0

Molecule: O=C(Oc1ccccc1)c1cccnc1 [compound 13, phenylnicotinate]
Relative rate (nicotinamide = 1.00) [2, 13]: 0.031
Relative rate (nicotinamide = 1.00) [3, 13]: 0.031
Relative rate (nicotinamide = 1.00) [4, 13]: 0.13

Molecule: N#Cc1cccnc1 [compound 23, 3-cyanopyridine]
Ki [6]: 1000 µM

Molecule: NC(=O)c1ccc(N)nc1 [compound 6, 6-aminonicotinamide]
Relative rate (nicotinamide = 1.00) [2, 14]: 0.20
Relative rate (nicotinamide = 1.00) [3, 14]: 0.36
Relative rate (nicotinamide = 1.00) [4, 14]: 0.45

Molecule: NC(=O)c1ccncc1 [compound 8, isonicotinamide]
Relative rate (nicotinamide = 1.00) [2, 13]: 0
Relative rate (nicotinamide = 1.00) [3, 13]: 0
Relative rate (nicotinamide = 1.00) [4, 13]: 0

Molecule: COc1cncc(C(N)=O)c1 [compound 2, 5-Methoxynicotinamide]
Relative rate (nicotinamide = 1.00) [2, 13]: 2.06
Relative rate (nicotinamide = 1.00) [5, 13]: 2.21
Relative rate (nicotinamide = 1.00) [3, 13]: 1.37
Relative rate (nicotinamide = 1.00) [4, 13]: 6.46

Molecule: O=C(O)c1cccnc1 [nicotinic acid, reference compound]
pKa [12]: ~3
effect on nicotinamidase rates (product inhibition) (nicotinamidases; nicotinic acid up to 500 µM, all enzymes, data not shown): do not vary

Molecule: NC(=O)c1ccc(Cl)nc1 [compound 4, 6-chloronicotinamide]
Relative rate (nicotinamide = 1.00) [2, 13]: 0.17
Relative rate (nicotinamide = 1.00) [5, 13]: 0
Relative rate (nicotinamide = 1.00) [3, 13]: 0.018
Relative rate (nicotinamide = 1.00) [4, 13]: 0

Molecule: C[n+]1ccc(C(N)=O)cc1 [compound 15, 1-methyl isonicotinamide]
Relative rate (nicotinamide = 1.00) [2, 13]: 0
Relative rate (nicotinamide = 1.00) [3, 13]: 0
Relative rate (nicotinamide = 1.00) [4, 13]: 0

Molecule: COC(=O)c1cccnc1 [compound 11, methylnicotinate]
Relative rate (nicotinamide = 1.00) [2, 13]: 0.15
Relative rate (nicotinamide = 1.00) [3, 13]: 0.035
Relative rate (nicotinamide = 1.00) [4, 13]: 65.0
Relative rate (nicotinamide = 1.00) ([4]; footnote b: HPLC assay, 500 µM analogue, pH 7.3, 37 °C, listed as methylnicotinate): 65
steady state rate constant of turnover ([4]; methylnicotinate as substrate): 18 s⁻¹

Molecule: NC(=O)c1cccnc1Cl [compound 3, 2-chloronicotinamide]
Relative rate (nicotinamide = 1.00) [2, 13]: 0
Relative rate (nicotinamide = 1.00) [5, 13]: 0
Relative rate (nicotinamide = 1.00) [3, 13]: 0
Relative rate (nicotinamide = 1.00) [4, 13]: 0

Ki [6]: 4.9 µM
Molecule: O=Cc1ccc(F)nc1 [compound 21, 6-Fluoro-3-pyridinecarboxaldehyde]

B1: CePNC2 (Caenorhabditis elegans nicotinamidase 2) (Caenorhabditis elegans) (protein)
chain: MGVVQNEQDIREKMKNELISLVNEIDLIPELDRLLDDFIENKTWNEDTQELFTRVVLKPFTTLRTSLLVVDFQNDFVTGSLSIKEGDAEQDPLEALPHVNNLLENLNWNMIVYTQDWHPSNHISFFEHARNPDRELAPEDKSRKLRPFDIVRFVKPVSTIQVLYPSHCIQGGWGSQLHLGLQRIDGAHYIKKGADVYVDAYSAFSDNCGIKQSELEMLLRKNDINAVIGCGLAYDICVMHTLKDASKHGFLTCIVKSGSKGLSSLKMDEANKMFQKRGVAIIDDEMAQLISRREAFPIEWIRLLVHQAQSELHGKK
Km (Steady state analysis): 76 ± 10 µM
kcat (Steady state analysis): 0.28 ± 0.013 s⁻¹

B2: CePNC1 (Caenorhabditis elegans nicotinamidase 1) (Caenorhabditis elegans) (protein)
chain: DNSATTNNNTILGNQSLEAIPEQLSELTGITVEESERIMESWLGNRQLDLRTSVLFDQEVLSRLRSLRVALLVVDFQNDFVDGSLKIGDGDAGQEPSSAITPLNELLQLSSWDLVVYTKDWHPHNHISFLSQAHNSDRVMDEKDENKTLGFFDSVQFLKPIKTEQVLYPDHCIQKSWGSDIHPEIYIADNAEYIMKGVDPYLDSYSAFNDNNGRSKTELEDLLRRENIDAVVIAGLAYDICVRFTCLDAVKQNFLAAVIPECSAGLTKKGIEESEMAFKKQGVAMISKDEARGITEGGFLPREWVQRIVKK
Km (Steady state analysis): 113 ± 11 µM
kcat (Steady state analysis): 3.1 ± 0.12 s⁻¹

Source: article PMC3010197 (Biochemistry, 2010)
